Laboratory results taken from US10501449B2 (priority 2018, dated 2019).

Target: hROMK (human Kir1.1) (Homo sapiens (Human), UniProt P48048)
Experiment: cell-based
Conditions: CHO T-Rex hROMK stable cell line; thallium flux; 10-point concentration response curve; read-out: Human ROMK Th Flux IC50
Experimental: Solutions and reagents: Thallium flux assay was performed using FluxOR kit (F10017, Life Technologies). Loading buffer, assay buffer and stimulus buffer were prepared using kit components. HBSS (Hank's balanced salt solution, Cat#14025-092) was purchased separately from Life Technologies.
To prepare 10 ml of loading buffer: 10 μl of FluxOR dye (reconstituted in DMSO) was first added to 100 μl of powerload concentrate and this mix along with 100 μl of Probenicid (100×) was then added to 9.79 ml of HBSS. Assay buffer (10 ml) was prepared by addition of 2 ml of FluxOR chloride free buffer (5×), 100 μl of Probenicid (100×), and 0.2 ml of Ouabain (13.77 mM) to 7.7 ml of deionized water. Stimulus buffer was composed of 15 mM Tl2SO4, 0.75 mM K2SO4 in FluxOR chloride free buffer (diluted to 1× using deionized water). The final concentration of Tl2SO4 and K2SO4 in the assay plate was 3 mM and 0.15 mM, respectively.
Plating and induction of cells: The CHO T-Rex hROMK (human Kir1.1) stable cell line was maintained in Ham's F12 media supplemented with 10% FBS, 1% Penicillin-Streptomycin, 500 μg/ml Zeocin and 10 μg/ml Blasticidin at 37° C. in a 5% CO2 incubator. One day before the experiment, the cells were dissociated by incubation with Versene solution (15040-066, Life Technologies) for 10 minutes at 37° C. followed by addition of growth media. The cell suspension was centrifuged at 1200 rpm for 5 min. After discarding the supernatant, the cells were resuspended in fresh growth media and cell concentration was determined using a hemocytometer. Next, 0.5 μg/ml of Doxycycline was added to the cell suspension to induce hROMK channel expression and 50 μl (10,000 cells/well) of cell suspension was added to each well of a poly-D lysine coated 384 well black, optically clear bottom plate (6007718, Perkin Elmer). The assay plate was kept at 37° C. in a 5% CO2 incubator.
Assay protocol: On the day of experiment, media was removed and loading buffer was added (30 μl/well) to the assay plate. The cells were incubated in the loading buffer for 30 minutes at 37° C. The loading buffer was then replaced by assay buffer (30 μl/well) followed by addition of test compounds or controls. The cells were incubated with compounds for 30 minutes and the plate was then mounted on FlexStation (Molecular Devices) for fluorescence read out with excitation and emission wavelengths at 488 and 525 nm, respectively. Each well was read for 90 sec at 2 sec interval and the stimulus buffer was added after 20 seconds of baseline recording. The final DMSO concentration was either 0.5 or 1% in the assay plate. Positive and negative controls were defined by addition of DMSO or 3 μM of a standard ROMK inhibitor, respectively, to the wells instead of a test compound.
A 10-point concentration response curve was used to estimate the IC50 value of test compounds.

Chain of hROMK (human Kir1.1) (P48048 whole entry): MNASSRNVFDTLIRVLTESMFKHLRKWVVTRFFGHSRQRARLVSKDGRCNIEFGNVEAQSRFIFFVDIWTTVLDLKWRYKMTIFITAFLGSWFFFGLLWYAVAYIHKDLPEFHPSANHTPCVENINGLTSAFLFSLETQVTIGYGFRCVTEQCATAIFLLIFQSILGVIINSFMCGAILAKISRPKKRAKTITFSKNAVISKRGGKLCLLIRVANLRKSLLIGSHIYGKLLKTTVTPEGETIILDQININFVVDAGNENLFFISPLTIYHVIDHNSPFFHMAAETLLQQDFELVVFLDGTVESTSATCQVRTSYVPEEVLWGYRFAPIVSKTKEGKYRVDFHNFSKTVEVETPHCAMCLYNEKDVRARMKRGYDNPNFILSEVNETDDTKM

Row | SMILES | IC50
1 | Cc1cc(-n2ccc(CN3C[C@@H](c4ccc5c(c4C)COC5=O)N[C@@H](C)C3)cc2=O)ncc1C#N [Example 247-I, 4′-methyl-4-(((3S,5R)-3-methyl-5-(4-methyl-1-oxo-1,3-dihydroisobenzofuran-5-yl)piperazin-1-yl)methyl)-2-oxo-2H-[1,2′-bipyridine]-5′-carbonitrile] | 330 nM
2 | Cc1cn(-c2ncc(CN3CCO[C@H](c4ccc5c(c4C)COC5=O)C3)cn2)cn1 [Example 224-I, (R)-4-methyl-5-(4-((2-(4-methyl-1H-imidazol-1-yl)pyrimidin-5-yl)methyl)morpholin-2-yl)isobenzofuran-1(3H)-one] | 27 nM
3 | Cc1cn(-c2ncc(CN3CCO[C@H](c4ccc5c(c4C)COC5=O)C3)s2)cn1 [Example 36-I, (R)-4-methyl-5-(4-((2-(4-methyl-1H-imidazol-1-yl)thiazol-5-yl)methyl)morpholin-2-yl)iso-benzofuran-1(3H)-one] | 680 nM
4 | Cc1c([C@@H]2CN(Cc3ccc(-c4ccc(=O)n(C)n4)nc3)C[C@H](C)N2)ccc2c1COC2=O [Example 120-I, 2-methyl-6-(5-(((3S,5R)-3-methyl-5-(4-methyl-1-oxo-1,3-dihydroisobenzofuran-5-yl)piperazin-1-yl)methyl)pyridin-2-yl)pyridazin-3(2H)-one] | 160 nM
5 | Cc1c([C@@H]2CN(Cc3cnn(-c4cccc(C#N)c4)c3)CCO2)ccc2c1COC2=O [Example 43-I, (R)-3-(4-((2-(4-methyl-1-oxo-1,3-dihydroiso-benzofuran-5-yl)morpho-lino)methyl)-1H-pyrazol-1-yl)benzonitrile] | 110 nM
6 | Cc1cc(N2CCOC2=O)cc(-n2cc(CN3C[C@@H](c4ccc5c(c4C)COC5=O)N[C@@H](C)C3)cn2)c1 [Example 152-I, 3-(3-methyl-5-(4-(((3S,5R)-3-methyl-5-(4-methyl-1-oxo-1,3-dihydroisobenzofuran-5-yl)piperazin-1-yl)methyl)-1H-pyrazol-1-yl)phenyl)oxazolidin-2-one] | 490 nM
7 | COc1cc(-n2cc(CN3CC(c4ccc5c(c4C)COC5=O)NC(C(C)O)C3)cn2)ncc1C#N (single isomer, unassigned) [Example 204-I, 6-(4-((3-(1-hydroxyethyl)-5-(4-methyl-1-oxo-1,3-dihydroisobenzofuran-5-yl)piperazin-1-yl)methyl)-1H-pyrazol-1-yl)-4-methoxynicotinonitrile] | 220 nM
8 | Cc1c([C@@H]2CN(Cc3cnn(-c4ccc5oc(=O)n(C)c5c4C)c3)CCN2)ccc2c1COC2=O [Example 135-I, (R)-3,4-dimethyl-5-(4-((3-(4-methyl-1-oxo-1,3-dihydroisobenzofuran-5-yl)piperazin-1-yl)methyl)-1H-pyrazol-1-yl)benzo[d]oxazol-2(3H)-one] | 170 nM
9 | Cc1ccc(-n2cnc(CN3C[C@@H](c4ccc5c(c4C)COC5=O)N[C@@H](C)C3)c2)cn1 [Example 180-I, 4-methyl-5-((2R,6S)-6-methyl-4-((1-(6-methylpyridin-3-yl)-1H-imidazol-4-yl)methyl)piperazin-2-yl)isobenzofuran-1(3H)-one] | 77 nM
10 | COc1cc(-n2cc(CN3CCN[C@H](c4ccc5c(c4C)COC5=O)C3)cn2)cc2c1oc(=O)n2C [Example 56-I, (R)-7-methoxy-3-methyl-5-(4-((3-(4-methyl-1-oxo-1,3-dihydroiso-benzofuran-5-yl)piperazin-1-yl)methyl)-1H-pyrazol-1-yl)benzo[d] oxazol-2(3H)-one] | 150 nM
11 | Cc1cc(-c2nnc(CN3CCN[C@H](c4ccc5c(c4C)COC5=O)C3)o2)ncc1C#N [Example 13-I, (R)-4-methyl-6-(5-((3-(4-methyl-1-oxo-1,3-dihydroisobenzofuran-5-yl)piperazin-1-yl)methyl)-1,3,4-oxadiazol-2-yl)nicotinonitrile] | 110 nM
12 | COc1cc(-n2cc(CN3C[C@@H](c4ccc5c(c4C)COC5=O)N[C@@H](C)C3)n(C(C)C)c2=O)ncc1C#N [Example 172-I, 6-(3-isopropyl-4-(((3S,5R)-3-methyl-5-(4-methyl-1-oxo-1,3-dihydroisobenzofuran-5-yl)piperazin-1-yl)methyl)-2-oxo-2,3-dihydro-1H-imidazol-1-yl)-4-methoxynicotinonitrile] | 160 nM
13 | Cc1cnccc1-n1cnc(CN2C[C@@H](c3ccc4c(c3C)COC4=O)N[C@@H](C)C2)c1 [Example 179-I, 4-methyl-5-((2R,6S)-6-methyl-4-((1-(3-methylpyridin-4-yl)-1H-imidazol-4-yl)methyl)piperazin-2-yl)isobenzofuran-1(3H)-one] | 360 nM
14 | Cc1c([C@@H]2CN(Cc3cnn(-c4ccn5nccc5n4)c3)CCO2)ccc2c1COC2=O [Example 50-I, (R)-4-methyl-5-(4-((1-(pyrazolo[1,5-a]pyrimidin-5-yl)-1H-pyrazol-4-yl)methyl)morpholin-2-yl)isobenzofuran-1(3H)-one] | 670 nM
15 | Cc1cc(-c2nc(CN3CC[C@@H](O)[C@H](c4ccc5c(c4C)COC5=O)C3)co2)ncc1C#N [Example 132-I, 6-(4-(((3R,4R)-4-hydroxy-3-(4-methyl-1-oxo-1,3-dihydroisobenzofuran-5-yl)piperidin-1-y)methyl)oxazol-2-yl)-4-methylnicotinonitrile] | 170 nM
16 | Cc1c([C@@H]2CN(Cc3cnn(-c4ccc(S(C)(=O)=O)cn4)c3)C[C@H](C)N2)ccc2c1COC2=O [Example 161-I, 4-methyl-5-((2R,6S)-6-methyl-4-((1-(5-(methylsulfonyl)pyridin-2-yl)-1H-pyrazol-4-yl)methyl)piperazin-2-yl)isobenzofuran-1(3H)-one] | 170 nM
17 | COc1ncc(-n2cc(CN3C[C@@H](c4ccc5c(c4C)COC5=O)N[C@@H](C)C3)cn2)cn1 [Example 208-I, 5-((2R,6S)-4-((1-(2-methoxypyrimidin-5-yl)-1H-pyrazol-4-yl)methyl)-6-methylpiperazin-2-yl)-4-methylisobenzofuran-1(3H)-one] | 190 nM
18 | COc1c(CN2CCN[C@H](c3ccc4c(c3C)COC4=O)C2)cnn1-c1ccc2oc(=O)n(C)c2c1 [Example 54-I, (R)-5-(5-methoxy-4-((3-(4-methyl-1-oxo-1,3-dihydroisobenzofuran-5-yl)piperazin-1-yl)methyl)-1H-pyrazol-1-yl)-3-methylbenzo[d] oxazol-2(3H)-one] | 110 nM
19 | Cc1c([C@@H]2CN(Cc3cn(-c4ccc5oc(=O)n(C)c5c4)cn3)CCO2)ccc2c1COC2=O [Example 29-I, (R)-3-methyl-5-(4-((2-(4-methyl-1-oxo-1,3-dihydroisobenzofuran-5-yl)morpholino)methyl)-1H-imidazol-1-yl) benzo[d]oxazol-2(3H)-one] | 120 nM
20 | Cc1cc(-c2ncc(CN3C[C@@H](c4ccc5c(c4C)COC5=O)N[C@@H](C)C3)s2)ncc1C#N [Example 113-I, 4,4-methyl-6-(5-(((3S,5R)-3-methyl-5-(4-methyl-1-oxo-1,3-dihydroisobenzofuran-5-yl)piperazin-1-yl)methyl)thiazol-2-yl)nicotinonitrile] | 25 nM
21 | CC(=O)NC1CC(c2ccc3c(c2C)COC3=O)CN(Cc2cnn(-c3cc(C)c(C#N)cn3)c2)C1 (single isomer, unassigned) [Example 257-I, N-(1-((1-(5-cyano-4-mehtylpyridin-2-yl)-1H-pyrazol-4-yl)methyl)-5-(4-methyl-1-oxo-1,3-dihydroisobenzofuran-5-yl)piperidin-3-yl)acetamide] | 1400 nM
